In ChEMBL document CHEMBL1201862, “PubChem BioAssay data set” (2004):
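These data come from cells grown in 96-well plates and exposed to compound for 48 hours at five concentrations. Here, GI50 denotes the concentration required for 50% inhibition of growth.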 The source made the active and inactive calls. No stated cut-off is given here; in the data, active = GI50 up to about 1.1 µM and inactive = higher.

What was measured:
Assay in all cases: inhibition of tumour cell growth, NCI panel, 48 h
M14 = test system: M14
HCT-15 = test system: HCT-15
SW-620 = test system: SW-620
EKVX = test system: EKVX
OVCAR-8 = test system: OVCAR-8
IGROV-1 = test system: IGROV-1
RXF 393 = test system: RXF 393
LOX IMVI = test system: LOX IMVI
HOP-62 = test system: HOP-62
OVCAR-3 = test system: OVCAR-3
SNB-19 = test system: SNB-19
UACC-62 = test system: UACC-62
NCI-H226 = test system: NCI-H226
NCI-H23 = test system: NCI-H23
SNB-75 = test system: SNB-75
SK-OV-3 = test system: SK-OV-3
SF-268 = test system: SF-268

Row | Compound | GI50 (M14) | GI50 (HCT-15) | GI50 (SW-620) | GI50 (EKVX) | GI50 (OVCAR-8) | GI50 (IGROV-1) | GI50 (RXF 393) | GI50 (LOX IMVI) | GI50 (HOP-62) | GI50 (OVCAR-3) | GI50 (SNB-19) | GI50 (UACC-62) | GI50 (NCI-H226) | GI50 (NCI-H23) | GI50 (SNB-75) | GI50 (SK-OV-3) | GI50 (SF-268)
1 | CC1(c2cccc3c2C2(O)C=CC4(CCC32)OCCO4)OCCO1 (stereo not given) | > 100 µM (inactive) | > 100 µM | > 100 µM (inactive) | > 100 µM (inactive) | > 100 µM (inactive) | > 100 µM (inactive) | > 100 µM (inactive) | > 100 µM (inactive) | > 100 µM (inactive) | > 100 µM (inactive) | > 100 µM (inactive) | > 100 µM (inactive) | > 100 µM (inactive) | > 100 µM (inactive) | > 100 µM (inactive) | > 100 µM (inactive) | > 100 µM (inactive)
2 | CCN(CC)C(=O)CCn1cc(F)c(=O)[nH]c1=O | > 100 µM (inactive) | > 100 µM | > 100 µM (inactive) | > 100 µM (inactive) | > 100 µM (inactive) | > 100 µM (inactive) | > 100 µM (inactive) | > 100 µM (inactive) | > 100 µM (inactive) | > 100 µM (inactive) | > 100 µM (inactive) | > 100 µM (inactive) | > 100 µM (inactive) | > 100 µM (inactive) | 4.68 µM (inactive) |  | > 100 µM (inactive)
3 | CC1(C)OC2OC(/C=C/[N+](=O)[O-])C3OC(C)(C)OC3C2O1 (stereo not given) | 12.3 µM (inactive) | 2.25 µM | 3.27 µM (inactive) | 20.1 µM (inactive) | 8.47 µM (inactive) | 34.9 µM (inactive) | 1.99 µM (inactive) | 7.5 µM (inactive) | 20.7 µM (inactive) | 16.4 µM (inactive) | 18.5 µM (inactive) | 15.1 µM (inactive) | 20.5 µM (inactive) | 18.7 µM (inactive) | 20.2 µM (inactive) | 20.6 µM (inactive) | 19.8 µM (inactive)
4 | Cc1cccc(C2=NC(C)(C)C(C)(C)N=C2c2cccc(C)n2)n1 | 71.6 µM (inactive) | > 100 µM | > 100 µM (inactive) | > 100 µM (inactive) | > 100 µM (inactive) | 38.5 µM (inactive) | > 100 µM (inactive) | > 100 µM (inactive) | > 100 µM (inactive) | 44.1 µM (inactive) | > 100 µM (inactive) | > 100 µM (inactive) | > 100 µM (inactive) | 30.1 µM (inactive) | > 100 µM (inactive) | > 100 µM (inactive) | > 100 µM (inactive)
5 | O=C(CCc1cc(-c2ccc(F)cc2)n[nH]1)N(Cc1ccccc1)Cc1ccccc1 | > 100 µM (inactive) | > 100 µM | > 100 µM (inactive) | > 100 µM (inactive) | > 100 µM (inactive) | > 100 µM (inactive) | > 100 µM (inactive) | > 100 µM (inactive) | > 100 µM (inactive) | > 100 µM (inactive) | > 100 µM (inactive) | > 100 µM (inactive) | > 100 µM (inactive) | > 100 µM (inactive) | > 100 µM (inactive) | > 100 µM (inactive) | > 100 µM (inactive)
6 | COC(=O)C(=O)C(C(=O)C(=O)Nc1cc(Cl)c(Cl)cc1Cl)c1nc2ccc([N+](=O)[O-])cc2nc1O (stereo not given) | > 100 µM (inactive) | > 100 µM | > 100 µM (inactive) | 48.5 µM (inactive) | > 100 µM (inactive) | > 100 µM (inactive) | > 100 µM (inactive) | > 100 µM (inactive) |  |  | > 100 µM (inactive) | > 100 µM (inactive) | > 100 µM (inactive) | > 100 µM (inactive) |  | > 100 µM (inactive) | > 100 µM (inactive)
7 | CCOC(=O)C1N(S(=O)(=O)c2ccc(C)cc2)CCC12C(c1ccc(OC)c(OC)c1)=Nc1ccccc12 (stereo not given) | > 100 µM (inactive) |  | > 100 µM (inactive) | > 100 µM (inactive) | > 100 µM (inactive) | > 100 µM (inactive) | 49.3 µM (inactive) | > 100 µM (inactive) | > 100 µM (inactive) | > 100 µM (inactive) | > 100 µM (inactive) | > 100 µM (inactive) | > 100 µM (inactive) | > 100 µM (inactive) | 35.5 µM (inactive) | > 100 µM (inactive) | 47.8 µM (inactive)
8 | CNC(=S)NC(=S)N(C)C | > 100 µM (inactive) | > 100 µM | 2.96 µM (inactive) | > 100 µM (inactive) | 4.94 µM (inactive) | > 100 µM (inactive) | > 100 µM (inactive) | 4.95 µM (inactive) | > 100 µM (inactive) | 3.18 µM (inactive) | > 100 µM (inactive) |  | > 100 µM (inactive) | 0.692 µM (active) | > 100 µM (inactive) | > 100 µM (inactive) | > 100 µM (inactive)
